Test results taken from US20250144067A1, “PERSONALIZED STARVATION THERAPY FOR CANCER” (Faeth Therapeutics, Inc., priority 2021, published 2025).
Counter-ions that a name gives are not always drawn. Peptide text beside a SMILES is read from it.

Key:
[1] = system: NCI-H292 lung cancer cells; assay: FDA drug screening, complete media vs cholesterol-free media with simvastatin (TABLE 2); assay type: cell-based, human; settings: for Cholesterol-free media + simvastatin (0.04 μM) / Complete Media: NCI-H292 cells
[2] = system: NCI-H292 lung cancer cells; assay: FDA drug screening, complete media vs cholesterol-free media without statin (TABLE 1); assay type: cell-based, human
[3] = FDA library drug in cholesterol-free media with simvastatin 0.04 μM
[4] = FDA library drug in complete media
[5] = complete media vs cholesterol-free media + simvastatin (0.04 μM), >0 enhanced anti-cancer activity, about 0 neutral, <0 antagonist
[6] = Complete minus Cholesterol-free; >0 enhanced anti-cancer activity, about 0 neutral, <0 antagonist
[7] = NCI-H292 cells, cholesterol-free media without statin
[8] = drug in cholesterol-free media with simvastatin 0.04 μM
[9] = cholesterol-free media with simvastatin 0.04 μM, cell growth value in FDA drug screen
[10] = complete media, cell growth value in FDA drug screen
[11] = complete media minus cholesterol-free media + simvastatin, >0 enhanced anti-cancer activity, about 0 neutral, <0 antagonist
[12] = NCI-H292 cells, FDA drug library screen, cholesterol-free media without statin
[13] = NCI-H292 cells, FDA drug library screen, complete media
[14] = NCI-H292 cells, cholesterol-free media without statin, FDA drug library screen
[15] = NCI-H292 cells, complete media, FDA drug library screen
[16] = FDA drug library screen, cholesterol-free media with simvastatin 0.04 μM
[17] = FDA drug library screen, complete media
[18] = complete media vs cholesterol-free media + simvastatin (0.04 μM), […]
[19] = Complete minus Cholesterol-free; […]
[20] = complete vs cholesterol-free media; >0 enhanced anti-cancer activity, about 0 neutral, <0 antagonist

O=[N+]([O-])c1cn2c(n1)OC[C@@H](OCc1ccc(OC(F)(F)F)cc1)C2 [Pretomanid]
Cholesterol-free media + simvastatin (0.04 μM) [1, 3]: 1.251 | Complete Media [1, 4]: 0.9046 | Difference [1, 5]: −0.35 | Difference [2, 6]: −0.21 | Cholesterol-free [2, 7]: 1.474 | Complete ([2]; NCI-H292 cells, complete media): 1.26

CN1CCCC(CC2c3ccccc3Sc3ccccc32)C1 (centres unmarked) [Metixene hydrochloride hydrate]
Cholesterol-free media + simvastatin (0.04 μM) [1, 8]: 1.206 | Complete Media ([1]; drug in complete media): 1.036 | Difference [1, 5]: −0.17 | Difference [2, 6]: −0.25 | Cholesterol-free [2, 7]: 1.293 | Complete ([2]; NCI-H292 cells, complete media): 1.044

CNC[C@H](O)c1ccc(O)c(O)c1.O=C(O)C(O)C(O)C(=O)O [L-Epinephrine (Bitartrate)]
Cholesterol-free media + simvastatin (0.04 μM) [1, 9]: 1.096 | Complete Media [1, 10]: 1.136 | Difference [1, 11]: 0.04 | Difference ([2]; Complete minus Cholesterol-free; greater than 0 enhanced anti-cancer activity, about 0 neutral, below 0 antagonist): −0.14 | Cholesterol-free [2, 12]: 1.247 | Complete [2, 13]: 1.112

CC(C)NCC(O)COc1ccc(CCOCC2CC2)cc1 (centres unmarked) [Betaxolol (hydrochloride)]
Cholesterol-free media + simvastatin (0.04 μM) [1, 9]: 1.08 | Complete Media [1, 10]: 1.11 | Difference [1, 11]: 0.03 | Difference [2, 6]: −0.02 | Cholesterol-free [2, 14]: 0.8929 | Complete [2, 15]: 0.8739

CC1(C)CCC[C@](C)([C@H]2CC[C@]3(C)[C@@H]2[C@H](O)C[C@@H]2[C@@]4(C)CC[C@H](O)C(C)(C)[C@@H]4[C@@H](O)C[C@]23C)O1 [Panaxatriol]
Cholesterol-free media + simvastatin (0.04 μM) [1, 16]: 1.085 | Complete Media [1, 17]: 0.956 | Difference [1, 18]: −0.13 | Difference [2, 19]: −0.09 | Cholesterol-free [2, 12]: 1.136 | Complete [2, 13]: 1.044

NC(=O)OCC(COC(N)=O)c1ccccc1 [Felbamate]
Cholesterol-free media + simvastatin (0.04 μM) [1, 8]: 1.169 | Complete Media ([1]; drug in complete media): 0.9237 | Difference [1, 5]: −0.25 | Cholesterol-free [2, 14]: 0.9609 | Complete [2, 15]: 1.103 | Difference [2, 20]: 0.14

CCNC(=O)[C@@H]1CCCN1C(=O)[C@H](CCCNC(=N)N)NC(=O)[C@H](CC(C)C)NC(=O)CNC(=O)[C@H](Cc1ccc(O)cc1)NC(=O)[C@H](CO)NC(=O)[C@H](Cc1c[nH]c2ccccc12)NC(=O)[C@H](Cc1c[nH]cn1)NC(=O)[C@@H]1CCC(=O)N1 [Fertirelin] (HELM PEPTIDE1{[Glp].H.W.S.Y.G.L.R.P.[CCN[*:1]]}$$$$V2.0)
Cholesterol-free media + simvastatin (0.04 μM) [1, 8]: 1.367 | Complete Media ([1]; drug in complete media): 1.138 | Difference [1, 18]: −0.23 | Difference [2, 19]: −0.12 | Cholesterol-free [2, 12]: 0.9867 | Complete [2, 13]: 0.8642

O[C@@H]1CO[C@H]2[C@@H]1OC[C@@H]2O [Isosorbide]
Cholesterol-free media + simvastatin (0.04 μM) [1, 16]: 0.9214 | Complete Media [1, 17]: 1.515 | Difference [1, 11]: 0.59 | Difference [2, 6]: −0.05 | Cholesterol-free [2, 14]: 1.174 | Complete [2, 15]: 1.123

NCCS [Cysteamine hydrochloride]
Cholesterol-free media + simvastatin (0.04 μM) [1, 16]: 0.9975 | Complete Media [1, 17]: 0.86 | Difference [1, 5]: −0.14 | Cholesterol-free [2, 14]: 1.255 | Complete [2, 15]: 1.431 | Difference [2, 20]: 0.18

Cc1ccc(C(=O)C(C)CN2CCCCC2)cc1 (centres unmarked) [Tolperisone (hydrochloride)]
Cholesterol-free media + simvastatin (0.04 μM) [1, 9]: 0.9156 | Complete Media [1, 10]: 0.9664 | Difference [1, 11]: 0.05 | Difference [2, 6]: 0.07 | Cholesterol-free [2, 14]: 1.37 | Complete [2, 15]: 1.436

CNCCCC1c2ccccc2C=Cc2ccccc21 [Protriptyline (hydrochloride)]
Cholesterol-free media + simvastatin (0.04 μM) [1, 3]: 1.142 | Complete Media [1, 4]: 0.7923 | Difference [1, 5]: −0.35 | Difference [2, 6]: −0.19 | Cholesterol-free [2, 7]: 1.347

Nc1ncc2ncn(CC3(OCP(=O)(O)O)CC3)c2n1 [Besifovir]
Cholesterol-free media + simvastatin (0.04 μM) [1, 9]: 0.9124 | Complete Media [1, 10]: 0.9846 | Difference [1, 11]: 0.07 | Cholesterol-free [2, 7]: 1.23 | Complete ([2]; NCI-H292 cells, complete media): 0.9121 | Difference ([2]; complete vs cholesterol-free media; greater than 0 enhanced anti-cancer activity, about 0 neutral, below 0 antagonists): −0.32

O=C1CN2Cc3c(ccc(Cl)c3Cl)N=C2N1 [Anagrelide (hydrochloride)]
Cholesterol-free media + simvastatin (0.04 μM) [1, 3]: 1.221 | Complete Media [1, 4]: 0.9483 | Difference [1, 5]: −0.27 | Difference [2, 6]: −0.26 | Cholesterol-free [2, 7]: 0.988 | Complete ([2]; NCI-H292 cells, complete media): 0.7326
